The values that follow come from patent US11319526B2, “Methods and compositions for making antibodies and antibody derivatives with reduced core fucosylation” (Seagen Inc., priority 2008, dated 2022).

For this assay, the system named is antibody core fucosylation in CHO DG44 cell line producing h1F6. Briefly: Effect of fucose analogs on antibody core fucosylation (h1F6 from CHO DG44 culture). It is filed as cell-based, Chinese hamster. To be noted: day 5; for inhibition at 50 µM: 50 μM fucose analog; for Inhibition at 1 mM / inhibition at 1000 µM: 1 mM fucose analog. Here is the method: Media was supplemented with insulin like growth factor (IGF), penicillin, streptomycin and either 1 mM or 50 μM of the fucose analog (prepared as described supra). On day 5 post inoculation, the culture was centrifuged at 13000 RPM for 5 minutes to pellet cells; antibodies were then purified from supernatant.
Antibody purification was performed by applying the conditioned media to protein A resin pre-equilibrated with 1× phosphate buffered saline (PBS), pH 7.4. After washing resin with 20 resin bed volumes of 1×PBS, antibodies were eluted with 5 resin bed volumes of Immunopure IgG elution buffer (Pierce Biotechnology, Rockford, Ill.). A 10% volume of 1M tris pH 8.0 was added to neutralize the eluted fraction.

Setting [1] is: Cricetulus griseus, CHO-DG44, 120 h, Table 1, inhibition of core fucosylation of h1F6, read-out: Inhibition at 50 μM.
Setting [2] is: Cricetulus griseus, CHO-DG44, 120 h, Table 1, ND = non-core fucosylated antibody not detected due to poor antibody production or inhibition of cell growth.
Setting [3] is: Cricetulus griseus, CHO-DG44, 120 h, Table 2, read-out: Inhibition at 50 μM.
The mark [4] stands for this setting: Cricetulus griseus, CHO-DG44, 120 h, Table 2.
The mark [5] stands for this setting: Table 1, inhibition of core fucosylation of h1F6.
Where [6] appears, read: Table 1, ND = non-core fucosylated antibody not detected due to poor antibody production or inhibition of cell growth.

Read-outs that look alike come from different tables or passages of the source. Some results are limits rather than exact numbers.

Take `CC(=O)OC1C(C)OC(F)C(F)C1OC(C)=O` (stereo not drawn) [1,2-difluoro-1,2-didexoy fucose peracetate]: where the note is “Table 2”, the inhibition (in general, how much of the control response was suppressed) at 50 µM was over 80% and the Inhibition (usually the relative decrease from the control value, in per cent) at 1 mM is over 80%.

Turning to `C#C[C@H](OC(C)=O)[C@H]1OC(OC)[C@@H](OC(C)=O)[C@@H]1OC(C)=O` (stereo partly drawn) [1-methyl-2,3,4-triacetyl alkynyl fucose, (2R,3R,4S)-2-((S)-1-acetoxyprop-2-ynyl)-5-methoxy-tetrahydrofuran-3,4-diyl Diacetate], under setting [1], the inhibition at 50 µM turned out to be 68%. Also, the inhibition at 1000 µM under setting [2] is over 80%.

Regarding `CC(=O)OC1O[C@@H](C)[C@@H](OC(C)=O)[C@@H](OC(C)=O)[C@@H]1Cl` (stereo partly drawn) [2-deoxy-2-chlorofucose triacetate, L-2-deoxy-2-chlorofucopyranose-1,3,4-triacetate], the inhibition at 50 µM under setting [3] is 17%. This compound returned an inhibition at 1000 µM under setting [4] of over 80%.

Consider `CC(=O)OC1O[C@@H](C)[C@@H](OC(C)=O)[C@@H](OC(C)=O)[C@@H]1F` (stereo partly drawn) [2-deoxy-2-fluorofucose peracetate, (3S,4R,5R,6S)-3-fluoro-6-methyl-tetrahydro-2H-pyran-2,4,5-triyl Triacetate], for which the inhibition at 50 µM under setting [3] is over 80%. The compound further yielded an inhibition at 1000 µM under setting [4] of over 80%. As to `C[C@H](O)[C@@H](O)[C@@H](O)[C@H](F)C=O` [2-deoxy-2-fluorofucose], the inhibition at 50 µM under setting [3] was over 80%. The compound further showed an inhibition at 1000 µM under setting [4] of over 80%.

`CC(=O)OC1O[C@@H](COCc2ccccc2)[C@@H](OC(C)=O)[C@@H](OC(C)=O)[C@@H]1OC(C)=O` (stereo partly drawn) [5-Benzyloxy fucose peracetate, (3S,4R,5R,6S)-6-(benzyloxymethyl)tetrahydro-2H-pyran-2,3,4,5-tetrayl tetraacetate]: the inhibition at 50 µM under setting [3] was determined as 0%. Further, at 1000 µM the inhibition under setting [4] was 75%.

Turning to `CC(=O)OC(C#N)[C@H]1OC(OC(C)=O)[C@@H](OC(C)=O)[C@@H]1OC(C)=O` (stereo partly drawn) [5-cyanoarabinofuranose tetraacetate], the inhibition at 50 µM under setting [1] fell in the range of 5 to 10%. On the same count and under the same terms, the same measure for `CC(=O)OC1OC(C#N)[C@@H](OC(C)=O)[C@@H](OC(C)=O)[C@@H]1OC(C)=O` (stereo partly drawn) [5-cyanoarabinopyranose tetraacetate]: 20%.

As to `CC(=O)OC1O[C@@H]([C@]2(C)CO2)[C@@H](OC(C)=O)[C@@H](OC(C)=O)[C@@H]1OC(C)=O` (stereo partly drawn) [5-methyloxiran-arabinose tetraacetate, (3S,4R,5S,6R)-6-((S)-2-methyloxiran-2-yl)-tetrahydro-2H-pyran-2,3,4,5-tetrayl tetraacetate], the inhibition at 50 µM under setting [1] is about 0%. The compound further came in with an inhibition at 1000 µM under setting [2] of 35 to 40%. Turning to `CC#CC(OC(C)=O)[C@@H](OC(C)=O)[C@@H](OC(C)=O)[C@@H](C=O)OC(C)=O` (stereo partly drawn) [5-propynyl fucose tetraacetate, 5-propynylarabinose tetraacetate], under setting [1], the inhibition at 50 µM is 50%. The compound also registered an inhibition at 1000 µM under setting [2] of over 80%. In the case of `C=CC1OC(OC(C)=O)C(OC(C)=O)C(OC(C)=O)C1OC(C)=O` (stereo not drawn) [5-vinyl fucose tetraacetate, 5-ethylenylarabinose tetraacetate], the “inhibition at 50 µM” value under setting [5] is reported as about 0%. The “Inhibition at 1 mM” value under setting [6] was about 4%. As to `CC(=O)OC1O[C@@H](C(F)F)[C@@H](OC(C)=O)[C@@H](OC(C)=O)[C@@H]1OC(C)=O` (stereo partly drawn) [6,6-difluorofucose tetraacetate, (3S,4R,5S,6R)-6-(difluoromethyl)tetrahydro-2H-pyran-2,3,4,5-tetrayl Tetraacetate], the inhibition at 50 µM under setting [3] was over 80%. This compound returned an inhibition at 1000 µM under setting [4] of over 80%. As for `CC(=O)O[C@H]([C@H](OC(C)=O)[C@H](CCl)OC(C)=O)[C@@H](C=O)OC(C)=O` [6-chloro-fucose tetraacetate, 6-chlorofucose tetraacetate], the inhibition at 50 µM under setting [1] was 20%. Also, the inhibition at 1000 µM under setting [2] lay in the range of 20 to 30%. As to `CC(=O)O[C@H]([C@H](OC(C)=O)[C@H](CC#N)OC(C)=O)[C@@H](C=O)OC(C)=O` [6-cyano fucose tetraacetate, 6-cyanofucose tetraacetate], under setting [1], the inhibition at 50 µM amounted to 30%. Also, the inhibition at 1000 µM under setting [2] is over 80%. Consider `CC(=O)O[C@H]([C@H](OC(C)=O)[C@H](CI)OC(C)=O)[C@@H](C=O)OC(C)=O` [6-iodo-fucose tetraacetate, 6-iodofucose tetraacetate], for which, under setting [1], the inhibition at 50 µM is 3%. The same compound registered an inhibition at 1000 µM under setting [2] of 30%. In the case of `CC(=O)O[C@@H]1[C@H](C)O[C@H](OC(C)=O)C(F)(F)[C@@H]1OC(C)=O` [(2R,4R,5R,6S)-3,3-difluoro-6-methyl-tetrahydro-2H-pyran-2,4,5-triyl Triacetate], the inhibition at 50 µM under setting [3] is 0%. The same compound registered an inhibition at 1000 µM under setting [4] of 75%.

As for `CC(=O)O[C@@H]1[C@H](C)O[C@@H](OC(C)=O)C(F)(F)[C@@H]1OC(C)=O` [(2S,4R,5R,6S)-3,3-difluoro-6-methyl-tetrahydro-2H-pyran-2,4,5-triyl Triacetate], under setting [3], the inhibition at 50 µM is 0%. Under setting [4], this compound came in with an inhibition at 1000 µM of 64%. For `CC(=O)O[C@H]1C[C@H](OC(C)=O)[C@H](OC(C)=O)[C@H](C)O1` [(2S,4S,5R,6S)-6-methyl-tetrahydro-2H-pyran-2,4,5-triyl Triacetate], in that order: 0% and 36%. With `C#CC1OC(OC(=O)C(C)(C)C)C(OC(=O)C(C)(C)C)C(OC(=O)C(C)(C)C)C1O` (stereo not drawn) [Alkynyl fucose 1,2,3-(trimethylacetate), 5-ethynylarabinose 1,2,3-(trimethylacetate)], the “inhibition at 50 µM” value under setting [5] is recorded as about 0%. `C#CC1OC(OC(=O)C(C)(C)C)C(O)C(OC(=O)C(C)(C)C)C1O` (stereo not drawn) [Alkynyl fucose di(trimethylacetate), 5-ethynylarabinose 1,3-(trimethylacetate)]: the “inhibition at 50 µM” value under setting [5] is over 80%. For `C#C[C@@H]1OC(OC(=O)c2cccnc2)[C@@H](OC(=O)c2cccnc2)[C@H](OC(=O)c2cccnc2)[C@@H]1OC(=O)c1cccnc1` (stereo partly drawn) [Alkynyl fucose pemicotinate, (3S,4R,5R,6S)-6-ethynyl-tetrahydro-2H-pyran-2,3,4,5-tetrayl Tetranicotinate], under setting [1], the inhibition at 50 µM is over 80%. The compound also showed an inhibition at 1000 µM under setting [2] of over 80%. On to `C#C[C@@H]1OC(OC(=O)CCOCCOC)[C@@H](OC(=O)CCOCCOC)[C@H](OC(=O)CCOCCOC)[C@@H]1OC(=O)CCOCCOC` (stereo partly drawn) [Alkynyl fucose per-PEG ester, (3S,4R,5R,6S)-6-ethynyl-tetrahydro-2H-pyran-2,3,4,5-tetrayl tetrakis(3-(2-methoxyethoxy)propanoate)], for which the inhibition at 50 µM under setting [1] was over 80%. Further, the inhibition at 1000 µM under setting [2] was over 80%. On to `C#C[C@@H]1OC(OC(=O)C(C)C)[C@@H](OC(=O)C(C)C)[C@H](OC(=O)C(C)C)[C@@H]1OC(=O)C(C)C` (stereo partly drawn) [Alkynyl fucose perisobutanoate, (3S,4R,5R,6S)-6-ethynyl-tetrahydro-2H-pyran-2,3,4,5-tetrayl tetrakis(2-methylpropanoate)], for which the inhibition at 50 µM under setting [1] was over 80%. In addition, the inhibition at 1000 µM under setting [2] is over 80%. Take `C#C[C@H]1OC(OC(=O)c2ccncc2)[C@@H](OC(=O)c2ccncc2)[C@H](OC(=O)c2ccncc2)[C@@H]1OC(=O)c1ccncc1` (stereo partly drawn) [Alkynyl fucose perisonicotinate, (3S,4R,5R,6R)-6-ethynyl-tetrahydro-2H-pyran-2,3,4,5-tetrayl Tetraisonicotinate]: the inhibition at 50 µM under setting [1] was over 80%. In addition, the inhibition at 1000 µM under setting [2] was over 80%. Regarding `C#CC(OC(=O)CCCCC)[C@@H](OC(=O)CCCCC)[C@@H](OC(=O)CCCCC)[C@@H](C=O)OC(=O)CCCCC` (stereo partly drawn) [Alkynyl fucose tetra-n-hexanoate, 5-ethynylarabinose tetrahexanoate], the inhibition at 50 µM under setting [1] was over 80%. Besides, under setting [2], the inhibition at 1000 µM is over 80%. Regarding `C#C[C@@H]1OC(OC(=O)CC)[C@@H](OC(=O)CC)[C@H](OC(=O)CC)[C@@H]1OC(=O)CC` (stereo partly drawn) [Alkynyl fucose tetrapropanonate, 5-ethynylarabinose tetrapropropanoate], the “inhibition at 50 µM” value under setting [5] was over 80%. For the same compound, under setting [6], the “Inhibition at 1 mM” value was over 80%.

As for `C#CC(O)[C@@H](O)[C@@H](O)[C@H](O)C=O` (stereo partly drawn) [Alkynyl fucose, 5-ethynylarabinose], the inhibition at 50 µM under setting [1] was over 80%. With `C=C=C[C@@H]1OC(OC(C)=O)[C@@H](OC(C)=O)[C@H](OC(C)=O)[C@@H]1OC(C)=O` (stereo partly drawn) [Allene, (3S,4R,5R,6S)-6-(propa-1,2-dienyl)-tetrahydro-2H-pyran-2,3,4,5-tetrayl Tetraacetate], the inhibition at 50 µM under setting [3] was 23%. Under setting [4], this compound returned an inhibition at 1000 µM of 34%.
